Results: patent US10011813B2, “Methane oxidation methods and compositions” (California Institute of Technology, priority 2015, dated 2018)
Converted amounts (≈) assume the structure as drawn. “And” between values parts separate entries of the source, which are not always exact repeats. Identical values can stand only once. Marks after values point to notes of the source that are not given here.

What was measured:
ANME-SRB consortia = test: FISH-nanoSIMS 15N incorporation (anabolic activity) of ANME-SRB consortia; format: cell-based, ANME-2c archaea and Desulfobacteraceae
Description: Incubations for FISH-nanoSIMS and RNA analysis. For AOM incubations with sulfate or AQDS that were used for nanoSIMS (FIG. 7 and FIG. 8A) and RNA analysis (FIG. 6), incubations experiments were set up following the AOM-rate measurements described above (initially containing 1.0 mM ammonium without ^15N label). Methane oxidation rates were tracked in these incubations via the ^13C label. After 11 days, ca. 3.5 mL of supernatant remained in the serum bottles to which 3.0 mL artificial seawater without ammonium containing either 25 mM AQDS, 28 mM sulfate, or no oxidant or electron acceptor was added. Next, 0.1 mL ^15NH4^+ (100 mM) was injected to yield about 2.0 mM ammonium with ca. 75% ^15N. Methane oxidation was monitored. After additional 8 days, the medium of the AQDS incubations was exchanged by 5.0 mL new medium containing 25 mM AQDS and 2.0 mM ^15NH4^+. Now the AQDS incubations contained ca. 95% ^15NH4^+ in the ammonium pool. The cultures were incubated for additional 10 days before harvest. Total incubation time with labeled ammonium: 18 days. Average labeling strength: ca. 75% for sulfate and no oxidant or electron acceptor control; ca. 86% for the AQDS incubations.
For the second independent set of experiments with iron citrate, humic acids and sulfate (FIG. 8B), the medium contained 1.0 mM ammonium with ca. 40% ^15N label throughout the incubation period. These experiments were carried out from identical incubations that were for the AOM rate measurements (highlighted in Table 4). In regards to Table 4, the percentage AOM rates are reported relative to sulfate-coupled AOM (1.50 μmol cm^−3 day^−1). Top: Summary of compounds described in FIG. 1B; Bottom: Oxidants or electron acceptors resulting in an AOM rate less than 0.10 μmol […] day^−1 (<7% rel. to sulfate as oxidant or electron acceptor).
Sampling for FISH-nanoSIMS and RNA. After an 18-day incubation in the presence of ^15NH4^+, each incubation was shaken to suspend the sediment and 1.0 mL sediment slurry was sampled using a disposable sterile needle and syringe (ca. 0.3 mL wet sediment). […]
Sample preparation for aggregate embedding, sectioning, FISH, and nanoSIMS. […] Sections of ca. 1 μm thickness were cut and stretched on a water droplet on a polylysine coated slide with teflon wells (Tekdon Inc) and analyzed by fluorescence in situ hybridization (FISH). […]
FISH conditions and probes. The FISH hybridization on thin sections of resin embedded microbial aggregates followed the recently optimized protocol described in S. E. McGlynn et al. The phylogenetic identity of microorganisms in the thin sections were determined using conventional FISH using oligonucleotide probes fluorescently labeled on both the 5′ and 3′ ends (dual labeled) as outlined herein. […]

[1] = system: methane seep sediment (ANME archaea); test: AOM rate measurement via 13C-methane (newly formed DIC) in methane seep sediment incubations; format: cell-based, ANME-2a and ANME-2c
Description: General description of methane oxidation measurements via ^13C-methane. Methane oxidation was quantified by determining the production of inorganic carbon (“CO2”). Accurate quantification of the concentration of inorganic carbon formed from methane oxidation is challenging due to 4 main reasons:
A defined amount of added DIC in artificial, buffered seawater was used with a low calcium concentration to prevent carbonate precipitation (see medium composition). As ^13CH4 was the only ^13C-enriched carbon source added, the newly formed ^13C-DIC must be derived from methane. For low methane oxidation rates (less than ca. 5% relative to sulfate as the oxidant or electron acceptor), however, enzyme-catalyzed isotope exchange between methane and DIC, needs to be taken into account, because it contributes to ^13C enrichment of the DIC without net methane oxidation, resulting in an overestimation of net methane oxidation. […] Details of both methods, the ^13CH4 experiments and the standard addition are described herein.
Incubation conditions for AOM rate measurement. Each incubation vial was set up with 1.0 cm^3 wet sediment (wet sediment=volume of sediment after allowing the sediment slurry settle for 48 h) in total slurry volume of […] as follows: Sterile serum vials were closed with butyl rubber stoppers (volume=12.9 ml after closing) and flushed with methane. 1.0 mL ^13CH4 (99% ^13C, Cambridge Isotope Laboratories, containing 0.05 vol % ^13CO2 as an impurity) was introduced anaerobically. 2.0 mL of artificial, anaerobic seawater containing 2.5× the target concentration of the corresponding electron acceptor was injected into the serum vial cooled on ice. For AQDS and 1,5-AQDS, this was a suspension corresponding to 25 mM (see TABLE 3).
The 1 L pyrex bottle with the sediment in the sulfate-free medium (1 part wet sediment in 3 parts of slurry volume) was vigorously shaken each time and 3.0 mL of slurry immediately removed and injected into the individual serum bottles. Each stoppered serum vial was supplemented with unlabeled methane (0.250 MPa overpressure: pressure gauge SSI Technologies, Inc., Media Gauge™) shaken and stored inverted at 4° C. (final headspace: 0.35 MPa methane, with ca. 4% ^13CH4). The exact fractional abundance of ^13C in the methane was quantified via ^1H-NMR spectroscopy for individual incubations.
AOM rate measurements (quantification of newly formed DIC based on ^13CH4). For ^13C-DIC analysis, 0.25 mL of the medium above the settled sediment in the microcosm was sampled with a disposable needle and syringe at each time point (same intervals for all experiments) and centrifuged (16000 rcf, 5 min). The supernatant was transferred into 0.6 mL eppendorf tubes, flash frozen in N2 (l), and stored at −20° C. until measurement. 150 μL of the thawed supernatant was then added to He-flushed vials containing 100 μL H3PO4 (85%). The resulting CO2 was analyzed for the isotopic enrichment (^13F(tn)) on a GC-IR-MS GasBench II (Thermo Scientific). The amount of DIC newly formed (Δ[DIC](tn), see FIG. 6B) was calculated from the measured ^13F (fractional abundance of ^13C), neglecting isotope effects on AOM according to Equation (1): Δ[DIC](tn)=[DIC](t0)*(^13F(tn)−^13F(t0))/(^13F(CH4)−^13F(tn)) (EQ. 1)

[2] = system: methane seep sediment (ANME archaea); test: Quantification of sulfide (methylene blue method) in AOM incubations; format: cell-based, ANME-2a and ANME-2c; conditions: Sulfate 28 mM, after 21-day incubation
Description: Quantification of sulfide. Supernatant was removed via syringe and centrifuged in 0.6 mL Eppendorf tubes (16000 rcf, 30 s). 20 μL of the clear supernatant was removed and added to 400 μL Zn(OAc)2 (500 mM) to preserve the sulfide. Analysis was carried out in triplicate via the methylene blue method described in J. D. Clin (Waters. Limnol. Oceanogr. 14:454 (1969)), using standards of 0.1, 0.25, 0.5, 1, 2, 5, 10 and 25 mM sulfide added to Zn(OAc)2 (500 mM) in the same ratios as for the samples. Quantification was carried out in a plate reader (TECAN Sunrise™) by monitoring the absorbance at 670 nm.

[3] = Quantification of AQDS solubility in the incubation medium; format: physicochemical
Description: Quantification of AQDS solubility in the incubation medium. Different regioisomers of AQDS (1,5-AQDS, 2,6-AQDS and 2,7-AQDS) were separately added to the modified artificial seawater described above, to a targeted final concentration of 25 mM. The suspensions were ultra-sonicated at room temperature to dissolve as much of the AQDS as possible. The tubes were kept at 4° C. or at 22.5° C. overnight. The tubes were centrifuged at 4° C. or 22.5° C. (16000 rcf, 30 min). The supernatant (300 μL) was mixed with 300 μL acetate (10.0 mM) as the internal standard and 100 μL deuterated water (99.9% D, Cambridge Isotope Laboratories) was added. The concentration of AQDS was obtained from integration of the ^1H-NMR spectra by comparison relative to the acetate standard.

Molecule: O=C([O-])CC(O)(CC(=O)[O-])C(=O)[O-].[Fe+3] [Fe(III)-citrate]
- AOM consortia anabolically active (>10% archaeal activity relative to sulfate treatments, or >0.8 at % 15N) (ANME-SRB consortia; second set of experiments, ca. 40% 15N): 14 out of 31
- Rate relative to AOM with sulfate ([1]; 2 mM, with 25 mM MoO4^2−): 7%
- Rate relative to AOM with sulfate ([1]; 5 mM, with 25 mM MoO4^2−): 37%
- Rate relative to AOM with sulfate ([1]; 10 mM, no MoO4^2−): 53%
- Rate relative to AOM with sulfate ([1]; 10 mM, with 25 mM MoO4^2−): 46%
- Rate relative to AOM with sulfate ([1]; 25 mM, with 25 mM MoO4^2−): 2.5%

Molecule: O=c1ccc2[n+]([O-])c3ccc(O)cc3oc-2c1 [Resazurin]
- Rate relative to AOM with sulfate ([1]; 10 mM, no MoO4^2−): ≤1.5 ^† %

Molecule: O=S(=O)(O)O [Sulfate]
- doubling time of ANME cells based on average 15N-incorporation (ANME-SRB consortia; 18 days with 15NH4+): 2.9 months
- Rate relative to AOM with sulfate ([1]; 28 mM, no MoO4^2−, 100% = 1.50 μmol cm^−3 day^−1): 100%
- Rate relative to AOM with sulfate ([1]; 28 mM, with 25 mM MoO4^2−): 20%
- DIC formed ([1]; Sulfate 28 mM, after 21-day incubation): 6.44 mM and 7.77 mM and 7.51 mM and 7.29 mM
- sulfate-coupled AOM rate ([1]; reference rate (100%) of Table 4): 1.50 μmol cm^−3 day^−1
- AOM rate ([1]; sediment characterization): 1.5 μmol methane (cm^3 wet sediment)^−1 d^−1
- sulfide (sum of HS^− and H2S), final concentration [2]: 5.9 mM and 6.5 mM and 7.0 mM and 6.1 mM

Molecule: 1-Hydroxynaphthoquinone
- Rate relative to AOM with sulfate ([1]; 10 mM, 1 mM, no MoO4^2−): ≤1.5 ^† %

Molecule: Cc1cc2nc3cc(C)c(N)cc3[n+](-c3ccccc3)c2cc1N.[Cl-] [Safranine T]
- Rate relative to AOM with sulfate ([1]; 10 mM, 1.6 mM, no MoO4^2−): ≤1.5 ^† %

Molecule: O=C([O-])CN(CCN(CC(=O)[O-])CC(=O)[O-])CC(=O)[O-].[Fe+3] [Fe(III)-EDTA]
- Rate relative to AOM with sulfate ([1]; 1.6 mM, no MoO4^2−): 8%
- Rate relative to AOM with sulfate ([1]; 10 mM, no MoO4^2−): ≤1.5 ^† %

Molecule: O=C1C(=C2Nc3c(cc(S(=O)(=O)O)cc3S(=O)(=O)O)C2=O)Nc2c1cc(S(=O)(=O)O)cc2S(=O)(=O)O [Indigo tetrasulfonate]
- Rate relative to AOM with sulfate ([1]; 10 mM, 1 mM, no MoO4^2−): ≤1.5 ^† %

Molecule: CN(C)c1ccc2nc3ccc(=[N+](C)C)cc-3sc2c1 [Methylene blue]
- Rate relative to AOM with sulfate ([1]; 1 mM, no MoO4^2−): ≤1.5 ^† %

Molecule: O=C1c2cccc(S(=O)(=O)O)c2C(=O)c2cccc(S(=O)(=O)O)c21 [1,5-AQDS, 9,10-anthraquinone-1,5-disulfonate]
- Rate relative to AOM with sulfate ([1]; 10 mM, no MoO4^2−): 38%
- Solubility in the incubation medium ([3]; 4° C.): 2.5 mM (≈ 921 µg/mL)

Molecule: Nc1ccc2nc3ccc(N)cc3[n+](-c3ccccc3)c2c1 [Phenosafranine]
- Rate relative to AOM with sulfate ([1]; 10 mM, 1.6 mM, no MoO4^2−): ≤1.5 ^† %

Molecule: [Na+].[Na+].[O]=[Mo](=[O])([O-])[O-] [molybdate, sodium molybdate]
- effect on methane oxidation in sulfate-free incubations containing AQDS ([1]; 25 mM molybdate, AQDS 10 mM): no inhibitory response
- effect on rates of sulfate-coupled AOM relative to controls ([1]; 25 mM molybdate, sulfate 28 mM): decreased by approximately fivefold

Molecule: O=C1c2ccc(S(=O)(=O)O)cc2C(=O)c2cc(S(=O)(=O)O)ccc21 [2,7-AQDS, 9,10-anthraquinone-2,7-disulfonate]
- Rate relative to AOM with sulfate ([1]; 10 mM, no MoO4^2−): 97%
- Solubility in the incubation medium ([3]; 4° C.): >25 mM
- Solubility in the incubation medium ([3]; 22.5° C.): >25 mM

Molecule: COS(=O)(=O)[O-].C[n+]1c2ccccc2nc2ccccc21 [Phenazine methosulfate]
- Rate relative to AOM with sulfate ([1]; 1 mM, no MoO4^2−): ≤1.5 ^† %

Molecule: O=C([O-])CN(CC(=O)[O-])CC(=O)[O-].[Fe+3] [Fe(III)-NTA]
- Rate relative to AOM with sulfate ([1]; 1 mM, no MoO4^2−): 2.5%
- Rate relative to AOM with sulfate ([1]; 10 mM, no MoO4^2−): ≤1.5 ^† %
